For orientation: IC50 means the concentration that gives 50% inhibition.

The text below walks through data of patent publication US8394858B2, “Cyclohexane derivatives and uses thereof” (Novartis AG, priority 2009, dated 2013).

In the experiment the target is T1, human acetyl-CoA carboxylase 2 (ACC2) (Homo sapiens, UniProt O00763).
T1 construct: The cDNA encoding amino acids 144 to 2458 of human acetyl-CoA carboxylase 2; made in house; host or cells: Sf9 insect cells (baculovirus, pFastBac1)
T1 sequence (O00763 144-2458): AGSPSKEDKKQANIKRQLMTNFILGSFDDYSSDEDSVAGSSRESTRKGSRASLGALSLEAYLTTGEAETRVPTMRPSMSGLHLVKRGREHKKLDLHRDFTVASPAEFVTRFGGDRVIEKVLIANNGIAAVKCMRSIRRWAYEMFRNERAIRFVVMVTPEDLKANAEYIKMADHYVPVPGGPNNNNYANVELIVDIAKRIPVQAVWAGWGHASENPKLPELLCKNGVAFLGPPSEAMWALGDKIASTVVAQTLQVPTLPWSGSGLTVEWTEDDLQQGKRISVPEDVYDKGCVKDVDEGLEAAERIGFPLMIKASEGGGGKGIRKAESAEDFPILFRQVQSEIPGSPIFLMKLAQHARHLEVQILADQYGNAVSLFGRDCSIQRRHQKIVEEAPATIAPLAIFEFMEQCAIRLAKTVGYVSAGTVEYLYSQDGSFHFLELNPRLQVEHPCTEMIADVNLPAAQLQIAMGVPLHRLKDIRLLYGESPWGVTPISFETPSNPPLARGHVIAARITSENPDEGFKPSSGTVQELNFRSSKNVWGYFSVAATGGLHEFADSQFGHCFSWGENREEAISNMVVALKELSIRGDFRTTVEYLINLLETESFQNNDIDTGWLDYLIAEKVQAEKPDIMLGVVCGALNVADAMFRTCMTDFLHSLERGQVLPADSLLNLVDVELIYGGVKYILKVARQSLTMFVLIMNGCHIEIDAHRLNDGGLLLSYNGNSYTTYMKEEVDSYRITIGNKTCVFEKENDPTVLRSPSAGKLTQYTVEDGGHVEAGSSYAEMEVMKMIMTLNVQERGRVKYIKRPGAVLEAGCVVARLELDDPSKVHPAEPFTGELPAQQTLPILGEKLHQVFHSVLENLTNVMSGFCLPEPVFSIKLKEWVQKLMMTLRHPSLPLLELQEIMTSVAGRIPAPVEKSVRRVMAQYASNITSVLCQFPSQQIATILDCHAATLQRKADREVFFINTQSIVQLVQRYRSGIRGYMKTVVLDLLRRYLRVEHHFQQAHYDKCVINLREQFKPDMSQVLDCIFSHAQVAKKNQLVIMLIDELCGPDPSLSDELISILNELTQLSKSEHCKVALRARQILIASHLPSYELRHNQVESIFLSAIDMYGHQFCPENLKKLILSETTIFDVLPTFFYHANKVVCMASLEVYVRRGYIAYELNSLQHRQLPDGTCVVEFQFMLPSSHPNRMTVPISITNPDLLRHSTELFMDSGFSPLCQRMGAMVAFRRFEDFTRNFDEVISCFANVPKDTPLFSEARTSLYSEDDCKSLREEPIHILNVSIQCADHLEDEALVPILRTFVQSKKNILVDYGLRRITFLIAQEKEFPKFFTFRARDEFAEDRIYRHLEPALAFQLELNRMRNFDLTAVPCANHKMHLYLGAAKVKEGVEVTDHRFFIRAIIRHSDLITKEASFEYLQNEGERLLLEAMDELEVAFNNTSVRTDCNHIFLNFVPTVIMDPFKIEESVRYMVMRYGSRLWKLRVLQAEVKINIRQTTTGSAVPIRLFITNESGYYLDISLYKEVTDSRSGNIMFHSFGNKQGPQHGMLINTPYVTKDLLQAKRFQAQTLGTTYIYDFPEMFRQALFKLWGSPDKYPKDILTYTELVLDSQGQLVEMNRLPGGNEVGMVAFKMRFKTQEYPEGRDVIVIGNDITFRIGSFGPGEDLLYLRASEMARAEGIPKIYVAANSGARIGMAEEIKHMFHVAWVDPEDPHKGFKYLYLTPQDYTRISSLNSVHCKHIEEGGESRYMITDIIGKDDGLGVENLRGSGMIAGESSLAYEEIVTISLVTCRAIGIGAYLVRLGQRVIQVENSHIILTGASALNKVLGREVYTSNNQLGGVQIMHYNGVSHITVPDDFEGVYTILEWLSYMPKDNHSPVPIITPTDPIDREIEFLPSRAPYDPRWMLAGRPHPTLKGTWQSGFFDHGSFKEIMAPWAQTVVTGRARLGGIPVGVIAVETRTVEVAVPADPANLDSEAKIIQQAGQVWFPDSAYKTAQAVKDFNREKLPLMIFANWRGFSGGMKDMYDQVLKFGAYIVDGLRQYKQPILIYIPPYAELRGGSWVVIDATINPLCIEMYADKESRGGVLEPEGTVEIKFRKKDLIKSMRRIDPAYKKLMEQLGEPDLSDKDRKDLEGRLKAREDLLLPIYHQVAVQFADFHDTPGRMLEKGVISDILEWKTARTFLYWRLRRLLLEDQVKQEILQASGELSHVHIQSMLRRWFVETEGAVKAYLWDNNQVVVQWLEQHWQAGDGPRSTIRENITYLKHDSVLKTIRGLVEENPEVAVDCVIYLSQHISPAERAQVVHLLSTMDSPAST
As to the kind of experiment: Acetyl-CoA carboxylase enzyme assay (malonyl-CoA formation by LC/MS/MS). Format: biochemical. As to conditions: recombinant human ACC2 (amino acids 144 to 2458), 50 μM acetyl-CoA, 120 μM ATP, 2 mM KHCO3. An excerpt: The cDNA encoding amino acids 144 to 2458 of human acetyl-CoA carboxylase 2 (ACC2, GenBank Accession # NM_001093) was cloned into the SalI and NotI sites of pFastBac1 (Invitrogen; Carlsbad, Calif.). The resulting plasmid was used to generate a recombinant ACC2 baculovirus that was amplified and titered according to the protocols in the Bac-to-Bac baculovirus expression system manual (Invitrogen). The titered virus was used to infect Sf9 cells grown in Ex-Cell 420 serum-free medium (JRH Biosciences; Lenexa, Kans.). At 48 hours post-infection, the cells were harvested and stored at −80° C. until purification. ACC2 was purified using ammonium sulfate precipitation and anion exchange chromatography.
The enzymatic assay was run as follows: 30 μL of reaction buffer (100 mM HEPES pH 7.5, 20 mM MgCl2, 20 mM potassium citrate, 2 mM DTT) was added to a 384-well microtiter plate followed by 2 μL of the test compound (or 100% DMSO control). ACC2 protein (10 μL of a 50 nM working solution) was added to plate, which was incubated at room temperature for 15 minutes. A 30 μL addition of substrate solution (50 μM acetyl-CoA, 120 μM ATP, 2 mM KHCO3) was used to initiate the reactions which were quenched with 6% acetic acid (40 μL). ACC catalyzed malonyl-CoA formation was detected by LC/MS/MS using a Cohesive Technologies LX Series multiplex LC/MS/MS system configured with four binary pumps (Agilent Technologies; Palo Alto, Calif.), a dual arm autosampler (Leap Technologies; Cary, N.C.), and one Quattro Micro triple quadrupole mass spectrometer (Waters, Milford, Mass.), all run by Aria Software version 1.5 (Cohesive Technologies; Franklin, Mass.). Four samples were injected (20 μL) onto four Phenosphere NEXT C18 30×2 mm 5 μm columns (Phenomenex; Torrance, Calif.), eluted by four separate pumps, running identical gradients, through a column switching manifold with the one outlet fitted to the electrospray (ESI) source. Malonyl-CoA was eluted with 5 mM ammonium acetate, pH 4.5 (Buffer A) and 100% acetonitrile (Buffer B) via a step gradient. Argon was used as the collision gas and the following species were monitored via MRM detection: malonyl-CoA (853.8>346.9), internal standard (A: [^13C3]-malonyl-CoA, 857>350). The lower limit of detection is 0.3 uM for malonyl-CoA in this assay.
Regarding `O=C1CN(C(=O)[C@H]2CC[C@H](NS(=O)(=O)c3ccc(-c4ccccc4)cc3)CC2)C(c2ccccc2)CN1` (some centres unmarked) [Example 428], the IC50 turned out to be 0.77 µM.
In the case of `C[C@@H](NC(=O)[C@H]1CC[C@H](NS(=O)(=O)c2ccc(-c3ccc(CN4CCOCC4)cc3)cc2)CC1)c1ccc(F)cc1` [Example 359] it was 0.052 µM; in that of `C[C@@H](NC(=O)[C@H]1CC[C@H](NS(=O)(=O)c2ccc(-c3ccc(CCN)cc3)cc2)CC1)c1ccc(F)cc1` [Example 378], 0.01 µM; in that of `O=C(O)CCc1ccc(-c2ccc(S(=O)(=O)N[C@H]3CC[C@H](C(=O)N4CCOC[C@@H]4c4ccccc4)CC3)cc2)cc1` [Example 419], 0.025 µM.
As for `Cc1[nH]cnc1-c1ccc(S(=O)(=O)N[C@H]2CC[C@H](C(=O)N[C@H](C)c3ccc(F)cc3)CC2)cc1` [Example 339], the IC50 was 0.025 µM.
Then `CC(C)(O)[C@@H](NC(=O)[C@]1(C)CC[C@@H](NS(=O)(=O)c2ccc(C(F)(F)F)cc2)CC1)c1ccccc1` [Example 448, (1r,4S)—N—((S)-2-Hydroxy-2-methyl-1-phenylpropyl)-1-methyl-4-(4-(trifluoromethyl)phenylsulfonamido)cyclohexanecarboxamide], with 0.04 µM.
Then `C[C@@H](NC(=O)[C@H]1CC[C@H](NS(=O)(=O)c2ccc(-c3ccc(OCCN4CCOCC4)cc3)cc2)CC1)c1ccc(F)cc1` [Example 385], with 0.01 µM; and `CC(C)(O)[C@@H](NC(=O)[C@H]1CC[C@H](NS(=O)(=O)c2ccc(C(F)(F)F)cc2)CC1)c1ccccc1` [Example 1, (1r,4S)—N—((S)-2-Hydroxy-2-methyl-1-phenylpropyl)-4-(4-(trifluoromethyl)phenylsulfonamido)cyclohexanecarboxamide], with 0.025 µM; and `O=C(O)CCc1ccc(-c2ccc(S(=O)(=O)N[C@H]3CC[C@H](C(=O)N4CCN(c5ccccn5)CC4c4ccccc4)CC3)cc2)cc1` (some centres unmarked) [Example 414], with 0.01 µM.
In the case of `O=C(O)CCc1ccc(-c2ccc(S(=O)(=O)N[C@H]3CC[C@H](C(=O)N4CCC[C@@H]4c4ccc(F)cc4)CC3)cc2)cc1` [Example 410], the 50% inhibitory concentration (IC50) is 0.09 µM.
Then `C[C@@H](NC(=O)[C@H]1CC[C@H](NS(=O)(=O)c2ccc(-c3ccc(CNCC(=O)O)cc3)cc2)CC1)c1ccc(F)cc1` [Example 370], with 0.01 µM; and `O=C(N[C@@H](c1ccccc1)C(F)(F)F)[C@H]1CC[C@H](NS(=O)(=O)c2ccc(C(F)(F)F)cc2)CC1` [Example 72], with 0.094 µM.
In the case of `C[C@H](O)[C@@H](NC(=O)[C@H]1CC[C@H](NS(=O)(=O)c2ccc(C(F)(F)F)cc2)CC1)c1ccccc1` [Example 171, (1r,4S)—N-((1S,2R)-2-Hydroxy-1-phenylpropyl)-4-(4-(trifluoromethyl)phenylsulfonamido)cyclohexancarboxamide] it was 0.09 µM; in that of `CC(C)(O)[C@@H](NC(=O)[C@H]1CC[C@H](NS(=O)(=O)c2ccc(-c3ccccc3)cc2)CC1)c1ccccc1` [Example 395], 0.01 µM.
